Test system: 966289-007-R4-J1-PDC complex spheroid viability
Assay: Anticancer human tumor 966289-007-R4-J1-PDC patient-derived pancreatic adenocarcinoma cell line growth inhibition [GQUAD]
Conditions: for IC50: curve of first compound; for viability, T/C: stronger effect = lower value
Excerpt: DNA G-quadruplex Stabilizer Agents in Combinations in Complex Spheroids
A high-throughput screen of multi-cell type tumor spheroids was designed to identify active combinations of DNA G-quadruplex stabilizer agents and targeted small molecules. Complex spheroids include a stromal component modeled by human endothelial cells (HUVEC) and fibroblasts modeled by human mesenchymal stem cells (MSCs). The concentration ranges selected for each drug and investigational agent were based upon clinically achievable concentrations if the clinical Cmax of the agent was known.
Compounds. The drugs and investigational agents: pidnarulex (CX-5461; NSC782164), APTO-253 (NSC789042), BRACO-19 (NSC847499), peposertib (NSC802822), ceralasertib (NSC780249), elimusertib (NSC800525), camonsertib (NSC841442), AZD-1390 (NSC803789), olaparib (NSC753686), talazoparib (NSC767125), ART-558 (NSC835418), sotorasib (NSC818433), MRTX-1133 (NSC836407), SN-38 (NSC673596), topotecan (NSC609699), etoposide (NSC141540), doxorubicin (NSC123127), gemcitabine (NSC613327), 5-fluorouracil (NSC19893), paclitaxel (NSC125973), vemurafenib (NSC761431), panobinostat (NSC761190), R-306465 (JNJ-16241199; NSC773264), adavosertib (NSC754352), TP-3654 (NSC805149), carboplatin (NSC241240), KSQ-4279 (NSC840948), and staurosporine (NSC755774) were obtained from the National Cancer Institute (NCI) Developmental Therapeutics Program Chemical Repository (34). The FDA-approved anticancer drug set is available from the NCI Developmental Therapeutics Program. […] The stock solutions were prepared in dimethyl sulfoxide (DMSO, Sigma-Aldrich, St. Louis, MO, cat. D2650) at 800-fold the tested concentration and stored at -70 degrees C prior to their use. All drugs and investigational agents were tested over a range starting from a high concentration at or near the clinical Cmax and decreasing in half-log increments. If the clinical Cmax for an agent had not been determined, the highest concentration tested was 10 microM.
2.3 Cell Culture. All cells were maintained in an incubator at 37 degrees C and 5% CO2 with 95% humidity. The PDC lines were cultured according to standard operating procedures established by the NCI PDMR. All PDCs were thawed and cultured in Matrigel-coated flasks prepared with a working solution of 1X Ham's F-12 nutrient mix, without supplementation (Invitrogen, cat. 11765054), 100 U/mL penicillin-streptomycin (Invitrogen, cat. 15140122), and 2.5% Matrigel (Corning Inc., cat. 354248) for the first three passages. The 857933-349-R-J2-PDC line was cultured in 6C/Colon 1B media, which includes advanced DMEM/F-12 (Thermo Fisher Scientific, cat. 12634028), 10 mM HEPES (Thermo Fisher Scientific, cat. 15630080), 1X GlutaMAX supplement (Thermo Fisher Scientific, cat. 35050061), 0.1 mg/mL primocin (InvivoGen, cat. ant-pm-2), 10% defined fetal bovine serum, heat inactivated (HyClone Laboratories Inc., cat. SH30070.03HI), 50% L-WRN conditioned media (ATCC, cat. CRL-3276), 1.25 mM N-Acetyl-L-cysteine (Sigma-Aldrich, cat. A9165), 10 mM nicotinamide (Sigma-Aldrich, cat. N0636), 1X B-27 supplement (Thermo Fisher Scientific, cat. 17504044), 1X N-2 supplement (Thermo Fisher Scientific, cat. 17502048), 10 microM Y-27632 dihydrochloride (Tocris Bioscience, cat. 1254), and 50 ng/mL human EGF recombinant protein (Thermo Fisher Scientific, cat. PHG0311). The 485176-168-R4-J1-PDC line was cultured in Panc media, which includes all 6C/Colon 1B media components plus 100 ng/mL human FGF-10 (Thermo Fisher Scientific, cat. 100-26), 500 nM SB-431542 (Selleckchem, cat. S1067), and gastrin (Tocris, cat. 3006).
[…]
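Also: spheroids exposed to the agents for seven days before readout.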
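For viability, T/C in this document: percent viability relative to DMSO vehicle control wells taken as 100%.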

**Q.** Which results are given for `COc1cccc2c1C(=O)c1c(O)c3c(c(O)c1C2=O)CC(O)(C(=O)CO)CC3OC1CC(N)C(O)C(C)O1` (configuration not stated) + CN(C)c1ccc(Nc2c3ccc(NC(=O)CCN4CCCC4)cc3nc3cc(NC(=O)CCN4CCCC4)ccc23)cc1?
**A.** IC50 (second compound 0.0316 µM): 69.2 nM; IC50 (second compound 0.1 µM): 67.1 nM; IC50 (second compound 0.316 µM): 65.1 nM; IC50 (second compound 1 µM): 66.2 nM; IC50 (second compound 3.16 µM): 65.7 nM; IC50 (second compound 10 µM): 59.6 nM; viability, T/C (second compound 0.0316 µM, first compound 0.0316 µM): 112%; viability, T/C (second compound 0.0316 µM, first compound 0.1 µM): 20.7%; viability, T/C (second compound 0.0316 µM, first compound 0.316 µM): 3.69%; viability, T/C (second compound 0.0316 µM, first compound 1 µM): 0.82%; viability, T/C (second compound 0.0316 µM, first compound 3.16 µM): 0.35%; viability, T/C (second compound 0.0316 µM, first compound 10 µM): 0.92%; viability, T/C (second compound 0.1 µM, first compound 0.0316 µM): 108%; viability, T/C (second compound 0.1 µM, first compound 0.1 µM): 19.4%; viability, T/C (second compound 0.1 µM, first compound 0.316 µM): 3.8%; viability, T/C (second compound 0.1 µM, first compound 1 µM): 0.83%; viability, T/C (second compound 0.1 µM, first compound 3.16 µM): 0.26%; viability, T/C (second compound 0.1 µM, first compound 10 µM): 0.53%; viability, T/C (second compound 0.316 µM, first compound 0.0316 µM): 105%; viability, T/C (second compound 0.316 µM, first compound 0.1 µM): 17.7%; viability, T/C (second compound 0.316 µM, first compound 0.316 µM): 3.65%; viability, T/C (second compound 0.316 µM, first compound 1 µM): 0.88%; viability, T/C (second compound 0.316 µM, first compound 3.16 µM): 0.29%; viability, T/C (second compound 0.316 µM, first compound 10 µM): 0.67%; viability, T/C (second compound 1 µM, first compound 0.0316 µM): 101%; viability, T/C (second compound 1 µM, first compound 0.1 µM): 21.3%; viability, T/C (second compound 1 µM, first compound 0.316 µM): 3.85%; viability, T/C (second compound 1 µM, first compound 1 µM): 0.93%; viability, T/C (second compound 1 µM, first compound 3.16 µM): 0.27%; viability, T/C (second compound 1 µM, first compound 10 µM): 0.34%; viability, T/C (second compound 3.16 µM, first compound 0.0316 µM): 106%; viability, T/C (second compound 3.16 µM, first compound 0.1 µM): 18.1%; viability, T/C (second compound 3.16 µM, first compound 0.316 µM): 3.67%; viability, T/C (second compound 3.16 µM, first compound 1 µM): 0.97%; viability, T/C (second compound 3.16 µM, first compound 3.16 µM): 0.25%; viability, T/C (second compound 3.16 µM, first compound 10 µM): 0.67%; viability, T/C (second compound 10 µM, first compound 0.0316 µM): 97.9%; viability, T/C (second compound 10 µM, first compound 0.1 µM): 11%; viability, T/C (second compound 10 µM, first compound 0.316 µM): 1.38%; viability, T/C (second compound 10 µM, first compound 1 µM): 0.42%; viability, T/C (second compound 10 µM, first compound 3.16 µM): 0.24%; viability, T/C (second compound 10 µM, first compound 10 µM): 0.29%
